Measured values from patent publication US20210369681A1, “Identification of PPM1D mutations as a novel biomarker for NAMPTi sensitivity” (YALE UNIVERSITY, priority 2018, published 2021).

system: parental and PPM1Dtrnc. immortalized human astrocytes; experiment: not given; type: cell-based; conditions: not given
Procedure: (§1) In vitro cellular viability assessments of immortalized human astrocytes, MCF7, and U2OS cell lines were made using a previously described, high-content, microscopy platform developed by our group. In brief, cells were plated in a 96-well plate at a density of 2000 cells/well, and incubated overnight. Drug treatment or vehicle (0.5% DMSO) control was administered, and cells were incubated for 72-96 hours as indicated. Plates were then washed with PBS and fixed with ice-cold 70% ethanol for 2 hours at 4° C. […] Cells were imaged using a Cytation3 imager (BioTek), and images were stitched and analyzed as described above. Viability assessments were made comparing drug treated to vehicle treated conditions. SU-DIPG and HSJD-DIPG-007 spheroid viability was assessed using CytoTox-Glo (Promega), according to the manufacturer's protocols. Spheroids were treated with FK866 for 120 hours before analysis using this method. IC50 calculations were made using GraphPad Prism, by fitting data to an [inhibitor] vs response−variable slope four parameter nonlinear regression (as depicted in the representative figures). siRNA Transfection and Viability Analysis Individual NAPRT targeting siRNAs were ordered from Dharmacon Inc. (Horizon Discovery), with target sequences listed in Table 1. The panel of siRNAs used for synthetic lethal viability screening was hand-selected and ordered from Dharmacon Inc. and were provided in ON-TARGET plus mixtures, each containing up to four unique siRNAs per gene. 2×10^5 astrocytes were reverse-transfected with different siRNAs (200 nM final concentration), using Lipofectamine RNAiMAX (Invitrogen), according to manufacturer's protocols. For individual siRNAs, cells were incubated for 72 hours, pelleted, and lyzed for immunoblotting. For the siRNA screen, cells were incubated for 24 hours and split to different condition plates, where they were incubated for an additional 24 hours. Cells were then treated with the described doses of FK866, and viability was assessed after 72 hours of drug treatment, using the image-based pipeline described above. Viability measurements were made for each siRNA, and normalized to FK866-untreated conditions.
Given the role of PPM1D in DDR pathways, we performed a small molecule synthetic lethal screen with a panel of inhibitors against key DNA repair and metabolic proteins, using methodology described previously by our group.

In the case of `O=P1(N(CCCl)CCCl)NCCCO1` (stereo not shown) [Cyclophosphamide], the “IC50 ratio (Parental/PPM1Dtrnc.)” value is reported as 0.90.

same assay, conditions: ratio of IC50 in parental astrocytes to IC50 in PPM1Dtrnc. astrocytes; viability

First: Cc1cc([C@@H](C)Nc2ccccc2C(=O)O)c2nc(N3CCOCC3)cc(=O)n2c1 [AZD6482]
Second: Cn1ncc2c(N3CCOCC3)nc(-c3cccc(O)c3)nc21 [ETP 45658]
The “IC50 ratio (Parental/PPM1Dtrnc.)” value of the first is lower: 1.00 for the first, 1.51 for the second.

Going from `NC(=O)Nc1cc(-c2cccc(F)c2)sc1C(=O)N[C@H]1CCCNC1` [AZD7762] to `O=C(c1cc(Cc2n[nH]c(=O)c3ccccc23)ccc1F)N1CCN(C(=O)C2CC2)CC1` [Olaparib], the “IC50 ratio (Parental/PPM1Dtrnc.)” value rises from 0.77 to 1.32.

Going from `C[C@@]1(CO)[C@H](O)CC[C@@]2(C)[C@H]1CC[C@H]1C[C@@H]3C[C@@]12CC[C@]3(O)CO` [Aphidicolin] to `CCc1c2c(nc3ccc(OC(=O)N4CCC(N5CCCCC5)CC4)cc13)-c1cc3c(c(=O)n1C2)COC(=O)[C@]3(O)CC` [Irinotecan], the “IC50 ratio (Parental/PPM1Dtrnc.)” value falls from 1.75 to 1.01.

Going from `Cn1c(=O)n(-c2ccc(C(C)(C)C#N)cc2)c2c3cc(-c4cnc5ccccc5c4)ccc3ncc21` [BEZ-235] to `C=CCn1c(=O)c2cnc(Nc3ccc(N4CCN(C)CC4)cc3)nc2n1-c1cccc(C(C)(C)O)n1` [MK-1775], the “IC50 ratio (Parental/PPM1Dtrnc.)” value falls from 1.01 to 0.63.

Compared with `Cn1ncnc1[C@H]1c2n[nH]c(=O)c3cc(F)cc(c23)N[C@@H]1c1ccc(F)cc1` [BMN673], `CNCc1ccc(-c2cc(-c3nc(-c4ccc(S(=O)(=O)C(C)C)cc4)cnc3N)on2)cc1` [VE822] is lower in “IC50 ratio (Parental/PPM1Dtrnc.)” value: 0.99 for the first, 0.93 for the second.

Going from `Cn1c(CCCC(=O)O)nc2cc(N(CCCl)CCCl)ccc21` [Bendamustine] to `CN(C)CCCNC(=O)c1ccc(-c2cc(O)c3ncccc3c2)cc1` [MLM324], the “IC50 ratio (Parental/PPM1Dtrnc.)” value falls from 1.07 to 1.02.

First: C[C@@H](CN1CC(=O)NC(=O)C1)N1CC(=O)NC(=O)C1 [Dexrazoxane]
Second: CO[C@@]12[C@H](COC(N)=O)C3=C(C(=O)C(C)=C(N)C3=O)N1C[C@@H]1N[C@@H]12 [MMC]
The “IC50 ratio (Parental/PPM1Dtrnc.)” value of the first is higher: 1.17 for the first, 1.08 for the second.

Going from `O=C(O)c1ccc(CN2CCC(CN[C@@H]3C[C@H]3c3ccccc3)CC2)cc1` [G5K2879552] to `CC(N[C@H]1C[C@@H]1c1ccccc1)c1ccc2c(c1)OCCO2` (stereo partly shown) [LSD1-C76], the “IC50 ratio (Parental/PPM1Dtrnc.)” value falls from 1.00 to 0.98.

Compared with `CCN1CCN(CC(=O)Nc2ccc(-c3cccc4c(=O)cc(N5CCOCC5)oc34)c3sc4ccccc4c23)CC1` [KU 0060648], `O=c1cc(N2CCOCC2)oc2c(-c3cccc4c3sc3ccccc34)cccc12` [NU-7441] is higher in “IC50 ratio (Parental/PPM1Dtrnc.)” value: 0.69 for the first, 1.26 for the second.

Going from `O=c1cc(-c2cccc3c2Sc2ccccc2S3)oc(N2CCOCC2)c1` [KU-55933] to `C/C(=N\NC(=O)c1cccc(S(=O)(=O)N2CCOCC2)c1)c1cc(Cl)ccc1O` [SP2509], the “IC50 ratio (Parental/PPM1Dtrnc.)” value rises from 1.18 to 1.36.

First: O=NN(CCCl)C(=O)NC1CCCCC1 [Lomustine]
Second: NS(=O)(=O)OC[C@@H]1C[C@@H](n2ccc3c(N[C@H]4CCc5ccccc54)ncnc32)C[C@@H]1O [MLN4924]
The “IC50 ratio (Parental/PPM1Dtrnc.)” value of the first is higher: 1.10 for the first, 0.92 for the second.

First: COS(C)(=O)=O [MMS]
Second: Cc1ccc([N+](=O)[O-])cc1S(=O)(=O)N(C)/N=C/c1cnc2ccc(Br)cn12 [PIK 75]
The “IC50 ratio (Parental/PPM1Dtrnc.)” value of the first is higher: 1.28 for the first, 0.97 for the second.

Compared with `OCc1ccc(-c2ccc(-c3ccc(CO)s3)o2)s1` [RITA], `CCN1CCN(C(=O)Cc2ccc(Nc3ncc(F)c(Nc4ccc(C(=O)Nc5ccccc5Cl)cc4)n3)cc2)CC1` [TC-S 7010] is lower in “IC50 ratio (Parental/PPM1Dtrnc.)” value: 1.27 for the first, 0.78 for the second.

First: CNc1cc(-c2cccc(Cl)c2Cl)nc(N)n1 [TH287]
Second: CC[C@@]1(O)C(=O)OCc2c1cc1n(c2=O)Cc2cc3c(CN(C)C)c(O)ccc3nc2-1 [Topotecan]
The “IC50 ratio (Parental/PPM1Dtrnc.)” value of the first is higher: 1.52 for the first, 0.99 for the second.

`Cn1nnc2c(C(N)=O)ncn2c1=O` [TMZ] was tested, and the “IC50 ratio (Parental/PPM1Dtrnc.)” value was 1.37.

system: PPM1Dtrnc. astrocytes; experiment: not given; conditions: not given
Procedure: PPM1D^trnc. astrocytes were treated with 50 µg/mL cycloheximide or 1 μM MG132 (both Sigma) for the indicated amount of time. Cells were then washed, pelleted, and lyzed for subsequent immunoblotting approaches, as described above. Quantification of immunoblot intensity was calculated using ImageJ software, and consisted of multiple (n=3) blots. Irradiation of cells was performed using an X-RAD KV irradiator (Precision X-ray), and treatment consisted of an unfractionated, 10 Gy dose. PPM1D inhibitor treatment with GSK2830371 (Selleckchem), consisted of 50 nM treatment, 24 hours prior to IR. FK866 (Selleckchem), GPP78 (Tocris Bioscience), STF118804 (Tocris Bioscience), STF31 (Tocris Bioscience), 5-azacytidine (Selleckchem), and Decitabine (Selleckchem) were dissolved in DMSO and used for treatment as indicated.
as §1

`NC(=O)c1ccc[n+]([C@@H]2O[C@H](CO)[C@@H](O)[C@H]2O)c1` [NR, nicotinamide riboside] was tested, and the “Effect on the cytotoxicity of FK866” value was “completely mitigated”.

same assay, conditions: 72 hr treatment; structurally distinct NAMPT inhibitors

In the case of `O=C(CCCCCCCn1cc(-c2cccnc2)nn1)Nc1ccccc1-c1ccccc1` [GPP78], the “NAMPT inhibitor sensitivity of PPM1D mutant astrocytes” value (shortened to “NAMPT inhibitor sensitivity”) is reported as “confirmed”.
`CC(C)(C)c1ccc(S(=O)(=O)NCc2ccc(C(=O)Nc3cccnc3)cc2)cc1` [STF31] was tested, and the “NAMPT inhibitor sensitivity” value was “confirmed”.
For `Cc1ccc(S(=O)(=O)Cc2nc(-c3ccc(C(=O)NCc4cccnc4)cc3)oc2C)cc1` [STF118804], the “NAMPT inhibitor sensitivity” value was “confirmed”.

same assay, conditions: PPM1Dtrnc. cells; 72 hr concurrent treatment with FK866

`NC(=O)c1cccnc1` [NAM, nicotinamide] was tested, and the “Effect on the cytotoxicity of FK866” value was “strongly antagonized”.

system: PPM1D (γH2AX foci in parental and PPM1Dtrnc. astrocytes); experiment: γH2AX foci formation after ionizing radiation; type: cell-based, human; conditions: 10 Gy IR; 50 nM inhibitor 24 hours prior to IR
Procedure: Astrocyte cell lines were seeded and incubated overnight, before radiation. Plates were then collected at indicated time points, fixed, permeabilized/blocked, and stained with primary and secondary antibodies for fluorescent imaging. […] Cells were subsequently washed in 1×PBS, followed by a joint permeabilization and blocking step in incubation buffer (5% BSA and 0.5% TritonX100, in PBS) for 1 hour. Primary antibody raised against γH2AX […] (Millipore 05-636) was added at a dilution of 1:1000 in incubation buffer, and incubated overnight at 4° C. Plates were washed, followed by a 1 hour RT incubation with alexafluor-conjugated secondary antibodies (ThermoFisher A21425 or A11029, 1:10,000) and a nuclear dye, […] Hoechst 33342 (Sigma), in secondary buffer (0.5% TritonX100, in PBS). Plates were again washed, and imaged in PBS using the Cytation3 imaging system (BioTek). Images were stitched using Gen5 v2.09 software (BioTek), and both foci and cell numbers were counted using CellProfiler image processing software.

`Cc1ncc(Cl)cc1NCc1ccc(C(=O)N[C@@H](CC2CCCC2)C(=O)NC2CC2)s1` [GSK2830371] was tested, and the “Differences in γH2AX foci between parental and PPM1Dtrnc. astrocytes after IR” value was “abolished”.

system: NAD and NADP levels in WT and PPM1Dtrnc. astrocytes; experiment: NAD / NADP quantification in astrocytes; type: cell-based, human; conditions: PPM1Dtrnc. astrocytes; exogenous NR (50 μM, 24 hrs)
Procedure: The NAD metabolome was quantitatively analyzed using LC-MS/MS, using two separations on Hypercarb and 13C metabolite standards. Subsequent NAD level analyses were performed using a NAD/NADH Quantification kit (Sigma), as per the manufacturer's specifications. Me/hME-DIP, Bisulfite Conversion, and Global 5-hmC Detection Genomic DNA was purified using the Wizard Genomic DNA purification kit (Promega), and subsequently immunoprecipitated or bisulfite-converted. […] Immunoprecipitated DNA was extracted with phenol/chloroform and analyzed using quantitative PCR (qPCR), as described below. Bisulfite conversion was performed via EpiMark Bisulfite Conversion kit (NEB). Modified DNA was then amplified using EpiMark Hot Start Taq DNA polymerase (NEB), with primers listed in Table 1, and purified with a PCR purification kit (Qiagen). Methylation was then assessed through Sanger-sequencing of the NAPRT promoter. Global 5-hydroxymethylcytosine levels were assessed via the Global 5-hmC quantification kit (Active Motif), according to manufacturer's protocols. Quantitative PCR (qPCR) mRNA transcripts were purified from cells using a RNAeasy kit (Qiagen) and subsequently reverse transcribed using a High Capacity cDNA reverse transcription kit (Applied Biosystems). PPM1D and NAPRT gene expression levels were assessed through qPCR with TaqMan fluorescent probes (all from Applied Biosystems): PPM1D (4331182), NAPRT (4351372), and Actin (4333762F), according to manufacturer's protocol. Expression level fold change was calculated via ΔΔCt comparison, using Actin as a reference gene. The NAPRT promoter region was quantitated via qPCR using Fast Start Universal SYBR Green Master with ROX (Roche), and primers listed in Table 1. All qPCR reactions were run on a StepOnePlus Real Time PCR system (Applied Biosystems).

With `NC(=O)c1ccc[n+]([C@@H]2O[C@H](CO)[C@@H](O)[C@H]2O)c1` [NR, nicotinamide riboside] the “Basal NAD levels” value was “sufficiently increased”.
